# Reference: ChEMBL document CHEMBL1201862, “PubChem BioAssay data set” (2004)
# Activity calls are given as the source filed them.
# Tests used:
# [1] = viability loss in Vero cells – cytotoxicity control for Vif-APOBEC3G degradation inhibitor project, dose response (AID 1117358); assay type: functional; conditions: Vero
# [2] = viability loss in HEK293 cells – cell-based, plate reader, cherry-picked samples, cytotoxicity control, dose response (AID 743446); assay type: functional
# [3] = blockers of bursicon-stimulated LGR2 cAMP reporter – cell-based, HEK293, CRE-luciferase reporter, cherry pick, set 2, dose response (AID 743343); assay type: functional;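 also: transfected cells were stimulated with diluted bursicon conditioned medium after compound addition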
# [4] = A549 cell cytotoxicity, dose response, cytotoxicity control, plate reader, cherry-pick, antagonist series (AID 743412); assay type: functional, cell-based
# [5] = blockade of melanocortin 4 receptor signaling – cell-based, plate reader, cherry pick, counter-screen for LGR2 antagonist project, dose response (AID 743444); assay type: functional;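 also: transfected HEK 293 cells stimulated with alpha-MSH peptide; potency of inhibitors of the alpha-MSH evoked signal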
# [6] = toxicity toward HepG2 liver cells – cell-based, plate reader, cherry-pick, antagonist series, cytotoxicity control, dose response (AID 743416); assay type: functional
# [7] = general cell-killing toxicity readout – plate reader, dry powder samples, cytotoxicity control for PAX8 inhibitor project, dose response (AID 743021); assay type: functional, cell-based
# [8] = OVCAR-3 cell viability loss – plate reader, dry powder samples, PAX8 inhibitor project, dose response (AID 743044); assay type: functional, cell-based
# Paired box protein Pax-8 = Paired box protein Pax-8 (Homo sapiens, UniProt Q06710); assay: PAX8 transcriptional activity inhibition in RMG-I – RMG-I cells, luciferase, cherry-pick, dose response (AID 687027); assay type: functional, cell-based;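 also: luciferase reporter driven by Pax8 target thyroperoxidase promoter measured by SteadyGlo luminescence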
# [9] = Luminescence-based cell-based high throughput dose response assay to identify activators of the DAF-12 from the parasite S. stercoralis (ssDAF-12).; assay type: functional
# [10] = target: T1, Oxysterols receptor LXR-beta (Homo sapiens, UniProt P55055); assay: LXR agonists, Gal4 luciferase reporter, dose response, counter-screen for ssDAF-12 agonist project, cell-based, luminescence, HEK293, S. stercoralis campaign (AID 720737); assay type: functional; conditions: read-out: IC50 (the source's name)
# T1 sequence (P55055 whole entry): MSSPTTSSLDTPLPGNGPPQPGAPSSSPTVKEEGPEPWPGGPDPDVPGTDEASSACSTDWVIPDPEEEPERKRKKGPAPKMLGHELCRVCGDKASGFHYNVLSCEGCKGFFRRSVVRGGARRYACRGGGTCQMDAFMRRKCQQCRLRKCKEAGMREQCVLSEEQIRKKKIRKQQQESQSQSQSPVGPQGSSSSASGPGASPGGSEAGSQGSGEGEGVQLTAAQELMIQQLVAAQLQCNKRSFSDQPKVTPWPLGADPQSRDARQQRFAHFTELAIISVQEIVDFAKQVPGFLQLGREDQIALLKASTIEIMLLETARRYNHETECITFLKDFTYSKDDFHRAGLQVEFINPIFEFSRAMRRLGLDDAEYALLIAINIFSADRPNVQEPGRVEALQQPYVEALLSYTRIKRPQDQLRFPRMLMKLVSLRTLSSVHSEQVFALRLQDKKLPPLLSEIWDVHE
# Kallikrein-7 = Kallikrein-7 (Homo sapiens, UniProt P49862); assay: Fluorescence Intensity-based biochemical primary high throughput dose response assay to identify activators of kallikrein-7 (K7) zymogen.
# [11] = P. falciparum Dd2 growth inhibitors, dose response, SYBR Green, cherry-picked samples (AID 1159567); assay type: functional, cell-based
# [12] = growth inhibition of yeast DHODH-expressing 3D7 parasites – SYBR Green, dry powder samples, dose response (AID 1159570); assay type: functional, cell-based;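 also: parasite growth measured after 72 hours of compound exposure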
# [13] = growth inhibition of PfATP4-mutant resistant parasites – NITD609-resistant line, SYBR Green, dry powder, dose response (AID 1159571); assay type: functional, cell-based;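 also: parasites synchronized at ring stage by sorbitol before testing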
# [14] = Dd2 malaria parasite growth inhibition potency – SYBR Green, dry powder samples, dose response (AID 1159566); assay type: functional, cell-based;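 also: potency for growth inhibition with lower SYBR green DNA signal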
# [15] = target: T2, Mannose-6-phosphate isomerase (Homo sapiens, UniProt P34949); assay: MPI inhibition at elevated mannose 6-phosphate – biochemical, fluorescence intensity, high mannose 6-phosphate, primary screen (AID 1220)
# T2 sequence (P34949 whole entry): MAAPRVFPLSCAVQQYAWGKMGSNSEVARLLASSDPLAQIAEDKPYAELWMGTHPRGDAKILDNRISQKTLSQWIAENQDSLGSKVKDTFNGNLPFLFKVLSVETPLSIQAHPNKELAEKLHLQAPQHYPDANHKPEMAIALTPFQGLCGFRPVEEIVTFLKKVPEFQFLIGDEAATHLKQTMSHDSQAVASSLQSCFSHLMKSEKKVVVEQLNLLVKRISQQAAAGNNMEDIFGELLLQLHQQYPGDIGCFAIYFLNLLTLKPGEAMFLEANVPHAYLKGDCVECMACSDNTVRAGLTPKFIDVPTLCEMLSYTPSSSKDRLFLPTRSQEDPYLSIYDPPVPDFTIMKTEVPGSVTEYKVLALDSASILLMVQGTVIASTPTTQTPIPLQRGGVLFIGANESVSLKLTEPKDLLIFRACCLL
# BJ [16] = assay: BJ-TERT-LT-ST fibroblast viability loss – cell-based, RAS-independent, luminescence, dose response (AID 1935); assay type: functional; conditions: Homo sapiens;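 also: BJ fibroblasts immortalized with TERT plus LT and ST oncogenes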
# [17] = DRD fibroblast viability loss – cell-based, non-viral oncogenic, luminescence, dose response (AID 1934); assay type: functional; conditions: Homo sapiens
# BJ [18] = assay: cells; assay type: functional, cell-based; conditions: Homo sapiens
# BJ [19] = assay: BJ-TERT fibroblast viability loss – cell-based, RAS-independent, luminescence, dose response (AID 1933); assay type: functional; conditions: Homo sapiens
# Protein Tat = target: T3, Protein Tat (Human immunodeficiency virus type 1 group M subtype B (isolate HXB2)(HIV-1), UniProt P04608); assay type: functional;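 also: tat binding to TAR RNA read out by fluorescence polarization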
# T3 sequence (P04608 whole entry): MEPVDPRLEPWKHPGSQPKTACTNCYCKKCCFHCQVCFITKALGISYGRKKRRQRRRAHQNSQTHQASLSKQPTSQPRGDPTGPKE
# cells = assay type: functional
# Nonstructural protein 1 = Nonstructural protein 1 (Influenza A virus, UniProt Q194T2); assay type: functional, Influenza A virus (A/California/07/2009(H1N1))
# [20] = target: T4, Histone-lysine N-methyltransferase NSD2 (Homo sapiens, UniProt O96028); assay type: biochemical
# T4 sequence (O96028 whole entry): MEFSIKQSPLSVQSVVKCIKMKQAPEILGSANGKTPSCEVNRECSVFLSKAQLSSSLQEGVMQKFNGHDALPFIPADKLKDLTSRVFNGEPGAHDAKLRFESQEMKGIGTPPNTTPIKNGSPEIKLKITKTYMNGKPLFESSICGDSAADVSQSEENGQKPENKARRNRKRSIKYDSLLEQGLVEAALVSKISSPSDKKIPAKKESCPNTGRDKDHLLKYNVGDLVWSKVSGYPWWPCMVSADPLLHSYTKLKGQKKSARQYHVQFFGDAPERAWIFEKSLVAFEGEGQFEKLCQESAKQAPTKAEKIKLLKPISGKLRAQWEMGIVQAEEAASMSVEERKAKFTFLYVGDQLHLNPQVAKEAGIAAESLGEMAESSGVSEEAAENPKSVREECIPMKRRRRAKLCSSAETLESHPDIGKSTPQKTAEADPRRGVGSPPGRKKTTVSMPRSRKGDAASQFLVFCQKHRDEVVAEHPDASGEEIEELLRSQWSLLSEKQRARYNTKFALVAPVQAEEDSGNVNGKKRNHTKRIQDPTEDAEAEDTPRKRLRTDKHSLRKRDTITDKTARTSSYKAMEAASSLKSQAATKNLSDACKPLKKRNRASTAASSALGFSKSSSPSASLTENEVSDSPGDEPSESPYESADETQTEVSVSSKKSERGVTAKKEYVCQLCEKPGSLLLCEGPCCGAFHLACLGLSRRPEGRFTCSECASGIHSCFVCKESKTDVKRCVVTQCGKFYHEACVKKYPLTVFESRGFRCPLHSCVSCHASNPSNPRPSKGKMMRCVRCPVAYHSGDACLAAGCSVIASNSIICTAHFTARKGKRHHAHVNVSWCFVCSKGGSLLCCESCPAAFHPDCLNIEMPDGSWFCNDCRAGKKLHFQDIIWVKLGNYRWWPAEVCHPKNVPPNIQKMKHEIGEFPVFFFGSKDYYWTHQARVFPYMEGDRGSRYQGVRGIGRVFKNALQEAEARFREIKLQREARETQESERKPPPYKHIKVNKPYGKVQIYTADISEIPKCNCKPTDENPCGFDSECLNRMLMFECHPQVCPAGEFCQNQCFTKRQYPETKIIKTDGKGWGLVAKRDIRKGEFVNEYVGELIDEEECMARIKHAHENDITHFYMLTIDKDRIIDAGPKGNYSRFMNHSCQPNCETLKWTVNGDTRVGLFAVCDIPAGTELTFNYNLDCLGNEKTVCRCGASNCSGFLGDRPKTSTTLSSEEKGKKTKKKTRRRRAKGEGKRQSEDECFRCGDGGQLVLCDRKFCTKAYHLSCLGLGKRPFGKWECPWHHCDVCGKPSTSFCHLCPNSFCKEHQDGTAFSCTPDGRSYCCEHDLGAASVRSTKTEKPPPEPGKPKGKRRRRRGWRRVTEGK
# [21] = target: T5, DNA repair and recombination protein RAD54-like (Homo sapiens, UniProt Q92698); assay: RAD54 Holliday junction migration blockers – biochemical, fluorescence, cherry-picked samples, dose series, confirmation (AID 651657); assay type: functional
# T5 sequence (Q92698 whole entry): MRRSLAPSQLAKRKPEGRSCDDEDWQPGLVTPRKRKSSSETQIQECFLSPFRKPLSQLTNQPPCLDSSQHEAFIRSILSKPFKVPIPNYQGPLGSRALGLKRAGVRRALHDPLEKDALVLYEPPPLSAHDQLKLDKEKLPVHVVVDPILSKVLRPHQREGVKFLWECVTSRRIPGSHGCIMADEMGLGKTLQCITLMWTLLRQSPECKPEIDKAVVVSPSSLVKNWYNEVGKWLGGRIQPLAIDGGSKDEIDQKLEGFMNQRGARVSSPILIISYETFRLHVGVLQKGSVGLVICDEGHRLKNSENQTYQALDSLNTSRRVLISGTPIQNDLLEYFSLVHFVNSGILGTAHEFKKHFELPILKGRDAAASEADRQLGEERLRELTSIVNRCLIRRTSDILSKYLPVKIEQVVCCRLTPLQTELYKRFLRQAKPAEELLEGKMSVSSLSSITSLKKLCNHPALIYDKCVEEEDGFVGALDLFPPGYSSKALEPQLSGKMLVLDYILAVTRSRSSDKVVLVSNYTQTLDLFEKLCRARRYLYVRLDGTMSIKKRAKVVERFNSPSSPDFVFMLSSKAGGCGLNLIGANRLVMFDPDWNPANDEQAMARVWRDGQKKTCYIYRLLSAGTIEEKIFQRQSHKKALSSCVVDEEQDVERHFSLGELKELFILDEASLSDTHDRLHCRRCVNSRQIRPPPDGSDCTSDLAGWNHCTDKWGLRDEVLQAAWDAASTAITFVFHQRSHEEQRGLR
# Chain of Kallikrein-7 (P49862 whole entry): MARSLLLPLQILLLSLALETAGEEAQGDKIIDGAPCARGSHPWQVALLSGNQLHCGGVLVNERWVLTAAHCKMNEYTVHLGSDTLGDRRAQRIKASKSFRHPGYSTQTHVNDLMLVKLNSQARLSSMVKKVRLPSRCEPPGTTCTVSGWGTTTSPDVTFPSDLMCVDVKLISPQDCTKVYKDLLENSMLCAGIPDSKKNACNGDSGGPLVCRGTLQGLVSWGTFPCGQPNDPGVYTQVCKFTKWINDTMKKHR
# Chain of Paired box protein Pax-8 (Q06710 whole entry): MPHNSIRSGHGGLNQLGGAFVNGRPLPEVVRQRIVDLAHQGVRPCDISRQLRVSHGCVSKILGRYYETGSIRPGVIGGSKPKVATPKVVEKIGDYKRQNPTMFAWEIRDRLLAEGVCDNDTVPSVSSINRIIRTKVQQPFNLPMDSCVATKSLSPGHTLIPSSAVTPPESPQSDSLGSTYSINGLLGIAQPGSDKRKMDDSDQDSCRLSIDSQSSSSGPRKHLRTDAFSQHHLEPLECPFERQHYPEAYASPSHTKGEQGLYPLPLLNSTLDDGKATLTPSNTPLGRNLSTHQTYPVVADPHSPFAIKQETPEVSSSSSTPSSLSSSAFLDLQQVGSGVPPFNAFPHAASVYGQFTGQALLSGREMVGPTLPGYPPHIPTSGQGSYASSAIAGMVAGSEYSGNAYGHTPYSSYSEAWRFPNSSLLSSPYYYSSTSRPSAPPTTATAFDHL
# Chain of Nonstructural protein 1 (Q194T2 whole entry): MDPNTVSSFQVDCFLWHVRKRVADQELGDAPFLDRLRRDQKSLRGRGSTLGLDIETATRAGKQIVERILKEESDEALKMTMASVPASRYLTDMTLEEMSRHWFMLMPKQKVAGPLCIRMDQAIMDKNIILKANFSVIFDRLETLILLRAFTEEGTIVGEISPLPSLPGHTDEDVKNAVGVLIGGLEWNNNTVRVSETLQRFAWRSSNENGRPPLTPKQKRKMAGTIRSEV
compound,measurement,setting,value
CCc1cc2c(N3CCCCC3)ncnc2s1,CC50,[1],> 40 µM (active)
Cc1cccc(N2CCN(C(=O)C3CCN(c4ncnc5c4nc4n5CCCCC4)CC3)CC2)c1C,AC50,[2],27.1 µM (active)
same,AC50,[3],31.3 µM (active)
same,AC50,[4],35 µM (active)
same,AC50,[5],35.8 µM (active)
same,AC50,[6],34.2 µM (active)
CC(C)CC#Cc1ccc2c(c1)O[C@H](CN(C)Cc1ccc(C(=O)O)cc1)[C@@H](C)CN([C@H](C)CO)S2(=O)=O,AC50,[7],48 µM (active)
same,AC50,[8],57.2 µM (active)
same,AC50,Paired box protein Pax-8,19.3 µM (active)
C(=N\Nc1nc2ccccc2s1)/c1ccc2c(c1)OCO2,IC50,[9],> 67.5 µM (inactive)
same,EC50,[10],> 67.5 µM (inactive)
COC(=O)c1cc(-c2ccc(OC)cc2)nc2nc(SC)[nH]c(=O)c12,EC50,Kallikrein-7,48 µM (inactive)
COC(=O)C1=C(N)Oc2cc(C)n(Cc3cccnc3)c(=O)c2C1c1cccc(OC)c1OC (centres undefined),CC50,[1],> 40 µM (active)
COc1c(N2CCN(C(=S)Nc3ccccc3F)C(C)C2)c(F)cc2c(=O)c(C(=O)O)cn(C3CC3)c12 (centres undefined),EC50,Kallikrein-7,> 69.5 µM (inactive)
CCCCCCC1(C)N=C(S)N(c2ccccc2)N1 (centres undefined),IC50,[9],> 67.6 µM (inactive)
same,EC50,[10],> 67.6 µM (inactive)
COc1ccc(C#Cc2ccc3c(c2)[C@H]2[C@H](CCN2C(=O)C2CCCC2)[C@@H](CO)N3)cc1,AC50,[11],2.04 µM (active)
same,AC50,[12],1.99 µM (active)
same,AC50,[13],2.2 µM (active)
same,AC50,[14],1.67 µM (active)
Oc1ccc2ccccc2c1/C=N\C1CCCCC1,IC50,[15],23.3 µM (active)
O=C(/C=C/c1cccs1)Nc1ccc(Br)cn1,EC50,BJ [16],10.2 µM (inconclusive)
same,EC50,[17],0.373 µM (inconclusive)
same,CC50,[1],> 40 µM (active)
same,EC50,BJ [18],25.5 µM (inconclusive)
same,EC50,BJ [19],0.417 µM (inconclusive)
CC(C)CN(C(=O)CN1CCN(c2ccc(O)cc2)CC1)c1c(N)n(CC(C)C)c(=O)[nH]c1=O,IC50,Protein Tat,> 100 µM (active)
O=C(COc1ccc2c(c1)CCC2)Nc1ccccn1,AC50,[2],33.3 µM (active)
same,AC50,[3],7.18 µM (active)
same,AC50,[4],45.3 µM (active)
same,AC50,[5],6.74 µM (active)
same,IC50,cells,39.2 µM (active)
CC1CC(C)CN(C(=O)c2cc3c(=O)n4ccccc4nc3s2)C1 (centres undefined),EC50,Kallikrein-7,> 69.5 µM (inactive)
COc1ccc2c3c(n(C)c2c1)[C@@H](CO)N(C(=O)Nc1ccc(F)cc1)CC31CCN(Cc2ccccn2)CC1,AC50,[11],3.18 µM (active)
same,AC50,[12],1.69 µM (active)
same,AC50,[13],2.11 µM (active)
same,AC50,[14],2.05 µM (active)
O=C1CC(Nc2ccc(N3CCOCC3)cc2)C(=O)N1c1cccc(C(F)(F)F)c1 (centres undefined),IC50,Nonstructural protein 1,> 100 µM (active)
same,IC50,Protein Tat,29.5 µM (inconclusive)
O=C(O)CCc1nn2c3ccccc3nc2n(CCN2CCCCC2)c1=O,EC50,Kallikrein-7,34.8 µM (inactive)
C[C@@H]1CN([C@H](C)CO)C(=O)c2cc(NS(=O)(=O)c3ccc(Cl)cc3)ccc2O[C@@H](C)CCCCO[C@@H]1CN(C)Cc1ccccc1,AC50,[7],43 µM (active)
same,AC50,Paired box protein Pax-8,4.7 µM (active)
CCNCCNc1ccc([N+](=O)[O-])c2cccnc12,AC50,[20],13.6 µM (active)
same,AC50,[21],29.7 µM (active)
